From paper PMC11234460, “In Silico Discovery of Stapled Peptide Inhibitor Targeting the Nur77‐PPARγ Interaction and Its Anti‐Breast‐Cancer Efficacy” (Advanced Science, 2024)
Where a SMILES comes first, the peptide text is derived from it. Bridges are numbered along the chain shown (N, C = ends). [ ]: non-standard residue; d: D form. S5 = C=CCCC[C@](C)(N)C(=O)O

What was measured:
[1] = system: Nur77-knockdown MCF7 and MDA-MB-231 cells; experiment: Cell viability assay (CCK-8), Nur77-knockdown breast tumor cells; assay type: cell-based; conditions: Nur77-knockdown MCF7 and MDA-MB-231, 24 h
Experimental: Cells were seeded 24 h prior to transfection. Transfection was performed with Transfect‐Mate (GenePharma, G04009) according to the manufacturer's protocols. To transfect siRNA into cells seeded on 6 well cell culture plates, 150 pmol of siRNA was mixed with 8 µL Transfect‐Mate, incubated at room temperature for 15 min, and then added to the cells. The medium was changed to DMEM after 6 h of culture, and the cells were incubated at 37 °C in a 5% CO2 incubator. 48 h later, the siRNA was successfully expressed and could be used for further experiments. The siRNAs used were listed in Table S1 (Supporting Information).

[2] = system: MDA-MB-231 cells; experiment: Transwell cell migration analysis; assay type: cell-based; conditions: MDA-MB-231, 12 h
Experimental: (§1) 600 µL DMEM complete medium was added to the lower chamber of the Transwell. Next, 2×10^4 cells in 100 µL DMEM medium, containing 1, 2, 5, 10, or 2 × 10^−5 M peptides, were added to the upper chamber of the Transwell. The cells were incubated for 12 h at 37 °C and 5% CO2. After the incubation period, the medium was discarded, and the chamber was washed with PBS. The cells were then fixed with 4% paraformaldehyde for 20 min. The upper chamber was subsequently soaked in crystal violet for 20 min, washed with PBS, and observed under a microscope for analysis.

[3] = system: MCF7 cells; experiment: Transwell cell migration analysis; assay type: cell-based, human; conditions: MCF7, 12 h
Experimental: as §1

[4] = system: MCF7 cells; experiment: Long-chain fatty acid uptake assay (BODIPY FL C16); assay type: cell-based, human; conditions: 24 h, BODIPY FL C16 1 h
Experimental: 5×10^4 MCF7 cells were seeded in confocal dishes and cultured overnight at 37 °C and 5% CO2. The cells were then incubated with a basic DMEM medium containing various concentrations of peptides (1/2/5/10/20 × 10^−6 M for flow cytometry and 10 × 10^−6 M for immunofluorescence) for 24 h. Afterward, 1 µL BODIPY FL C16 (1 × 10^−6 M, Thermo Fisher, D3821) was added to the confocal dishes and incubated with the cells for 1 h. Following incubation, the cell nuclei were stained with Hoechst for 8 min. Uptake of FA was monitored using flow cytometry (CytoFLEX, Beckman Coulter, USA) and DeltaVision OMX (GE, USA).

[5] = system: MDA-BoM-1833 bone metastasis; experiment: Bone metastatic breast cancer model (MDA-BoM-1833, left ventricle injection); assay type: in vivo, mouse
Description: Female BALB/c mice (4–5 weeks old, 16–18 g) and BALB/c mice (7–8 weeks old, 18–20 g) were provided by Shanghai Slake Experimental Animal Co., Ltd., and housed under specific pathogen‐free conditions for use in orthotopic xenograft tumor model experiments and bone metastasis tumor model experiments. The animal experiment was approved by the ethical committee of Shanghai University of Traditional Chinese Medicine (approval number: PZSHUTCM220627036).
To establish the bone metastasis tumor model, 1×10^5 cells were injected into the left ventricle of each mouse (7–8 weeks old), and surgery was monitored using a cardiac ultrasound instrument. The mice were randomly divided into three groups and treated with PBS (control group, n = 6), 5 mg kg^−1 ST‐CY14 (n = 6), and 10 mg kg^−1 ST‐CY14 (n = 6) Tumor cell metastasis was monitored using an in vivo imaging instrument (IVIS Spectrum, PerkinElmer, USA). by intraperitoneal injection of 20 mg kg^−1 D‐luciferin. The mice were treated with ST‐CY14 via intravenous injection using a 100 µL PBS solution every 2 days starting on the designated day after tumor cell injection. Bone tissue with MDA‐BoM‐1833 cell metastasis was obtained and stained for TRAP. The mice sera were collected and analyzed for BSP and β‐CTx levels using ELISA (Lengton, BPE10823, BPE10438). For the orthotopic xenograft tumor model, 3×10^6 cells were injected into the fourth pair of breast pads on the left side of the mouse (4–5 weeks old). The mice were treated with ST‐CY14 every two days once the tumor volume reached 30–50 mm^3, with the same groups as in the bone metastasis tumor model. The tumors were collected and stained for H&E, Ki‐67, and TUNEL assays, which were conducted by Wuhan Servicebio Technology Co., Ltd. Major organs (heart, liver, spleen, lung, and kidney) were also collected for H&E analysis by Wuhan Servicebio Technology Co., Ltd. The Transcriptome and LC/MS targeted lipid metabolome were sequenced by OE Biotech, Inc., Shanghai, China. To evaluate the efficacy of Csn‐B in inhibiting breast cancer bone metastasis, an animal model was established as described above. The mice were randomly divided into three groups and treated with PBS (control group, n = 6), 10 mg kg^−1 ST‐CY14 (n = 6) in 100 µL PBS solution, and 5 mg kg^−1 ST‐CY14 (n = 6) in a 100 µL mixed solution (5% DMSO, 20% PEG 400, 5% Tween 80, and 70% normal saline) via intravenous injection every 2 days starting on the designated day after tumor cell injection.

[6] = system: MCF7 cells; experiment: Scratch (wound-healing) assay; assay type: cell-based, human; conditions: MCF7, 12 h
Experimental: MCF7 and MDA‐MB‐231 cells were seeded in 6‐well plates and cultured overnight. Once the cell density reached 90%, a line was scratched along the center of the 6‐well plate and images were taken randomly in the scratch domain under a microscope. The cells in each well were then treated with peptides of varying concentrations for 12 h, after which images were taken again in the scratch domain. The formula used to calculate the scratch healing rate was as follows: Scratch healing rate (%) = [(Scratch area at 0 h – Scratch area at 12 h) […] Scratch area at 0 h] × 100%.

[7] = system: MCF-10A cells; conditions: 24 h, CCK-8
Experimental: MCF7, MDA‐MB‐231, and MDA‐BoM‐1833 cells (5000 cells/well) were seeded in 96‐well plates and cultured overnight at 37°C and 5% CO2. The cells were then treated with fresh basic medium containing various concentrations (1/2/5/10/20 × 10^−6 M) of compounds. After 24 h of incubation, the cells were incubated with a basic medium containing 10% Cell Counting Kit‐8 (Dojindo, CK‐04) for 2 h. Cell viability was evaluated by measuring the absorbance at 450 nm. The formula used was [(As‐Ab)/(Ac‐Ab)] × 100%, where as represents the absorbance of the drug‐treated group, Ac represents the absorbance of the control group treated with medium, and Ab represents the absorbance of the blank control containing only medium.

C[C@@H](O)[C@@H]1NC(=O)[C@H](CCCNC(=N)N)NC(=O)[C@H](CCCNC(=N)N)NC(=O)[C@@](C)(NC(=O)[C@H](Cc2ccccc2)NC(=O)CNC(=O)[C@H](CCCCN)NC(=O)[C@H](CS)NC(=O)CNC(=O)[C@H](CCC(=O)O)NC(=O)[C@@H](N)CS)CCCC=CCCC[C@@](C)(C(=O)N[C@@H](CCCNC(=N)N)C(=O)N[C@@H](Cc2ccc(O)cc2)C(=O)N[C@@H](Cc2ccc(O)cc2)C(=O)NCC(=O)N[C@@H](CCCNC(=N)N)C(=O)N[C@@H](CCCCN)C(=O)N[C@@H](CCCCN)C(=O)N[C@@H](CCCNC(=N)N)C(=O)N[C@@H](CCCNC(=N)N)C(=O)N[C@@H](CCC(N)=O)C(=O)N[C@@H](CCCNC(=N)N)C(=O)N[C@@H](CCCNC(=N)N)C(=O)N[C@@H](CCCNC(=N)N)C(N)=O)NC1=O [ST-CY14] (H-CEGCKGF[S5]RRT[S5]RYYGRKKRRQRRR-NH2; staple 8-12)
Sensitivity of Nur77-knockdown breast tumor cells [1]: less sensitive to ST‐CY14
Transwell transmigration [2]: inhibited the transmigration
Transwell transmigration [3]: inhibited the transmigration
FA uptake (flow cytometry) ([4]; MCF7, 1-20 × 10^−6 M): dose‐dependent decrease in FA levels
FA uptake (immunofluorescence) ([4]; MCF7, 1 × 10^−5 M): inhibited FA uptake
Bone metastasis (bioluminescence imaging) ([5]; 5 and 10 mg kg^−1 i.v. every 2 days, day 28, n = 6): inhibited the metastasis of tumor cells
H&E staining of major organs ([5]; heart, liver, spleen, lung, kidney, n = 3): None of the groups demonstrated notable changes in H&E staining of major organs
Efficacy in inhibiting bone metastasis compared with Csn-B ([5]; i.v. every 2 days, day 28, n = 6): superior to that of Csn‐B
TRAP level in mouse femoral head ([5]; staining of bone tissue): decrease in the level of tartrate‐resistant acid phosphatase
BSP and β-CTx levels in mouse blood (ELISA) ([5]; versus control group): Lower levels
Scratch healing [6]: suppressed the scratch healing
Sensitivity of normal breast cells [7]: less sensitive to ST‐CY14
